# Results taken from PubChem BioAssay AID1845209 (Molecular Pharmacology Branch, DTP, NCI, 2023).
# pIC50: −log10 of the molar value.
# Tested on: NCI-H211 tumor spheroids, viability percent test/control
# Assay: Anticancer human tumor NCI-H211 cell line growth inhibition;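 note: spheroids exposed to agents for seven days before readout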
# Conditions: spheroids with HUVEC and MSC; for pIC50: curve of first compound; for viability, T/C: stronger effect = lower value
# From the text: Multicellular complex tumor spheroid response to DNA repair inhibitors in combination with DNA-damaging drugs
# This study explores the anticancer activities of DNA-damaging drugs and inhibitors of DNA damage repair, both as single agents and in combinations. Complex tumor spheroids comprised of malignant cells, endothelial cells and mesenchymal stem cells served as an in vitro model for human solid tumors. This model system incorporates physiologically relevant features and patient-derived or established malignant cell lines with clinically relevant genetic alterations from many tumor types. Twenty-six patient-derived or established malignant cell lines were evaluated representing sarcoma, melanoma, small cell lung cancer (SCLC), non-small cell lung cancer (NSCLC), as well as bladder, ovarian and pancreatic cancers. The concentration ranges selected for each drug and investigational agent were based upon clinically achievable concentrations if the clinical Cmax of the agent was known.
# Compounds. The drugs and compounds olaparib (NSC753686), talazoparib (NSC767125), berzosertib (NSC777718), elimusertib (NSC800525), nedisertib (NSC802822), VX-984 (NSC792969), AZD-1390 (NSC803789), temozolomide (NSC362856), topotecan (NSC609699), trabectedin (NSC813783), staurosporine (NSC755774), and gemcitabine (NSC613327) were obtained from the National Cancer Institute (NCI) Developmental Therapeutics Program Chemical Repository. The FDA-approved anticancer drug set is available from the Developmental Therapeutics Program at https://dtp.cancer.gov/organization/dscb/obtaining/available_plates.htm. […] The stock solutions were prepared in dimethyl sulfoxide (DMSO, Sigma-Aldrich, St. Louis, MO, cat. D2650) at 400-fold the tested concentration and stored at -70 degrees C. Prior to their use, the stock solutions were diluted in fresh medium and the final DMSO concentration in the assay was 0.25% (v/v). All drugs and investigational agents were tested over a range starting from a high concentration at or near the clinical Cmax and decreasing in half-log increments. If the clinical Cmax for an agent had not been determined, the highest concentration tested was 10 microM.
# Cell Lines. The patient-derived cancer cell (PDC) lines: 156681-154-R-J1-PDC, 283228-195-R-J1-PDC, 287954-098-R-J1-PDC, 292921-168-R-J2-PDC, 349418-098-R-PDC, 425362-245-T-J1-PDC, 556581-035-R-J1-PDC, and BL0293-F563-PDC were received from the NCI Patient-Derived Models Repository (PDMR, https://pdmr.cancer.gov). The established cell lines HS-SY-2 (RRID:CVCL_8719), MPNST, and SYO-1 (RRID:CVCL_7146) were obtained from the Sloan Kettering Institute. The alveolar soft parts sarcoma cell line ASPS-1 (RRID:CVCL_S738) was established at the NCI and grown from internal seed stocks. The following established cell lines were purchased from the American Type Culture Collection (ATCC, Manassas, VA): G-401 (ATCC, cat. CRL-1441, RRID:CVCL_0270), SW982 (ATCC, cat. HTB-93, RRID:CVCL_1734), VA-ES-BJ (ATCC, cat. CRL-2138, RRID:CVCL_1785), NCI-H719 (ATCC, cat. CRL-5837, RRID:CVCL_1582), NCI-H196 (ATCC, cat. CRL-5823, RRID:CVCL_1509), NCI-H841 (ATCC, cat. CRL-5845, RRID:CVCL_1595), NCI-H1618 (ATCC, cat. CRL-5879, RRID:CVCL_1480), NCI-H1876 (ATCC, cat. CRL-5902, RRID:CVCL_1503), DMS 114 (ATCC, cat. CRL-2066; RRID:CVCL_1174), NCI-H211 (ATCC, cat. CRL-5824; RRID:CVCL_1529), and SW 1271 (ATCC, cat. CRL-2177, RRID:CVCL_1716). The small cell lung cancer cell line COR-L88 was purchased from Sigma-Aldrich (cat. 92031917-1VL, RRID:CVCL_1141). The non-small cell lung cancer cell lines NCI-H226 (RRID:CVCL_1544) and NCI-H322M (RRID:CVCL_1557) were established at the NCI and grown from internal seed stocks. Pooled donor human umbilical vein endothelial cells (HUVEC, Lonza, cat. CC-2519) and human mesenchymal stem cells (hMSC, Lonza, cat. PT-2501) were purchased from Lonza (Walkersville, MD).
# Cell Culture. All cells were maintained in an incubator at 37 degrees C and 5% CO2 with 95% humidity. […]
structure (smiles),measurement,setting,value
Cn1ncnc1[C@H]1c2n[nH]c(=O)c3cc(F)cc(c23)N[C@@H]1c1ccc(F)cc1 + Cn1nnc2c(C(N)=O)ncn2c1=O,pIC50,second compound 1 µM,> 8.02
same,pIC50,second compound 3.16 µM,> 8.02
same,pIC50,second compound 10 µM,> 8.02
same,pIC50,second compound 31.6 µM,> 8.02
same,pIC50,second compound 100 µM,> 8.02
same,"viability, T/C","second compound 1 µM, first compound 0.00949 µM",3.46%
same,"viability, T/C","second compound 1 µM, first compound 0.03 µM",3.69%
same,"viability, T/C","second compound 1 µM, first compound 0.0949 µM",2.71%
same,"viability, T/C","second compound 1 µM, first compound 0.3 µM",3.04%
same,"viability, T/C","second compound 1 µM, first compound 0.949 µM",3.81%
same,"viability, T/C","second compound 1 µM, first compound 3 µM",3.16%
same,"viability, T/C","second compound 3.16 µM, first compound 0.00949 µM",3.37%
same,"viability, T/C","second compound 3.16 µM, first compound 0.03 µM",3.4%
same,"viability, T/C","second compound 3.16 µM, first compound 0.0949 µM",3.93%
same,"viability, T/C","second compound 3.16 µM, first compound 0.3 µM",3.87%
same,"viability, T/C","second compound 3.16 µM, first compound 0.949 µM",3.65%
same,"viability, T/C","second compound 3.16 µM, first compound 3 µM",3.16%
same,"viability, T/C","second compound 10 µM, first compound 0.00949 µM",3.37%
same,"viability, T/C","second compound 10 µM, first compound 0.03 µM",3.82%
same,"viability, T/C","second compound 10 µM, first compound 0.0949 µM",3.49%
same,"viability, T/C","second compound 10 µM, first compound 0.3 µM",3.08%
same,"viability, T/C","second compound 10 µM, first compound 0.949 µM",3.95%
same,"viability, T/C","second compound 10 µM, first compound 3 µM",3.46%
same,"viability, T/C","second compound 31.6 µM, first compound 0.00949 µM",3.2%
same,"viability, T/C","second compound 31.6 µM, first compound 0.03 µM",3.45%
same,"viability, T/C","second compound 31.6 µM, first compound 0.0949 µM",3.47%
same,"viability, T/C","second compound 31.6 µM, first compound 0.3 µM",3.72%
same,"viability, T/C","second compound 31.6 µM, first compound 0.949 µM",3.28%
same,"viability, T/C","second compound 31.6 µM, first compound 3 µM",3.57%
same,"viability, T/C","second compound 100 µM, first compound 0.00949 µM",2.87%
same,"viability, T/C","second compound 100 µM, first compound 0.03 µM",3.97%
same,"viability, T/C","second compound 100 µM, first compound 0.0949 µM",3.4%
same,"viability, T/C","second compound 100 µM, first compound 0.3 µM",3.21%
same,"viability, T/C","second compound 100 µM, first compound 0.949 µM",3.43%
same,"viability, T/C","second compound 100 µM, first compound 3 µM",3.17%
Cn1ncnc1[C@H]1c2n[nH]c(=O)c3cc(F)cc(c23)N[C@@H]1c1ccc(F)cc1 + CC[C@@]1(O)C(=O)OCc2c1cc1n(c2=O)Cc2cc3c(CN(C)C)c(O)ccc3nc2-1,pIC50,second compound 0.003 µM,> 8.02
same,pIC50,second compound 0.00949 µM,> 8.02
same,pIC50,second compound 0.03 µM,> 8.02
same,pIC50,second compound 0.0949 µM,> 8.02
same,pIC50,second compound 0.3 µM,> 8.02
same,"viability, T/C","second compound 0.003 µM, first compound 0.00949 µM",1.01%
same,"viability, T/C","second compound 0.003 µM, first compound 0.03 µM",1.19%
same,"viability, T/C","second compound 0.003 µM, first compound 0.0949 µM",1.05%
same,"viability, T/C","second compound 0.003 µM, first compound 0.3 µM",1.13%
same,"viability, T/C","second compound 0.003 µM, first compound 0.949 µM",1.18%
same,"viability, T/C","second compound 0.003 µM, first compound 3 µM",1.13%
same,"viability, T/C","second compound 0.00949 µM, first compound 0.00949 µM",1.17%
same,"viability, T/C","second compound 0.00949 µM, first compound 0.03 µM",1.18%
same,"viability, T/C","second compound 0.00949 µM, first compound 0.0949 µM",1.24%
same,"viability, T/C","second compound 0.00949 µM, first compound 0.3 µM",1.21%
same,"viability, T/C","second compound 0.00949 µM, first compound 0.949 µM",1.11%
same,"viability, T/C","second compound 0.00949 µM, first compound 3 µM",1.49%
same,"viability, T/C","second compound 0.03 µM, first compound 0.00949 µM",0.91%
same,"viability, T/C","second compound 0.03 µM, first compound 0.03 µM",1.11%
same,"viability, T/C","second compound 0.03 µM, first compound 0.0949 µM",1.25%
same,"viability, T/C","second compound 0.03 µM, first compound 0.3 µM",1.13%
same,"viability, T/C","second compound 0.03 µM, first compound 0.949 µM",1.14%
same,"viability, T/C","second compound 0.03 µM, first compound 3 µM",1.06%
same,"viability, T/C","second compound 0.0949 µM, first compound 0.00949 µM",1.14%
same,"viability, T/C","second compound 0.0949 µM, first compound 0.03 µM",1.25%
same,"viability, T/C","second compound 0.0949 µM, first compound 0.0949 µM",1.17%
same,"viability, T/C","second compound 0.0949 µM, first compound 0.3 µM",1.17%
same,"viability, T/C","second compound 0.0949 µM, first compound 0.949 µM",1.1%
same,"viability, T/C","second compound 0.0949 µM, first compound 3 µM",1.34%
same,"viability, T/C","second compound 0.3 µM, first compound 0.00949 µM",1.06%
same,"viability, T/C","second compound 0.3 µM, first compound 0.03 µM",1.01%
same,"viability, T/C","second compound 0.3 µM, first compound 0.0949 µM",1.1%
same,"viability, T/C","second compound 0.3 µM, first compound 0.3 µM",1.37%
same,"viability, T/C","second compound 0.3 µM, first compound 0.949 µM",1.05%
same,"viability, T/C","second compound 0.3 µM, first compound 3 µM",1.06%
